Experimental data: patent publication US6664297B1, “Methods for inhibition and dissolution of amyloidoses by administration of compositions comprising 2,4-dinitrophenol” (priority 2000, dated 2003)
Where a name gives a salt, the structure may show the parent alone. Values belong to the compound of their own block, whether it stands above or below them.

Columns and labels:
Aβ1-42 [1] = biological target: T1, Aβ1-42 (Homo sapiens, UniProt P05067); experiment: Disaggregation of aggregated Aβ1-42 followed by 90° light scattering; type: biochemical; settings: for IC50: aggregated Aβ1-42, light scattering measured 1.5 hour after addition, 23° C., read-out: IC50 for disaggregation of Aβ; for inhibition at 200 µM: read-out: % decrease in light scattering
T1 construct: purchased Bachem Inc; host or cells: synthetic peptide
Method: (§1) Aβ peptides of different chain-lengths (Bachem Inc., Torrance, Calif., USA) were freshly dissolved from lyophilized powder in 50% (v/v) trifluoroethanol (TFE) in PBS. Aggregation was triggered by dilution of aliquots from the stock solution into PBS (resulting in ≦0.5% (v/v) residual TFE), and was followed as a function of time by light scattering measurements. Light scattering was measured in sealed cuvettes at 500 nm on ISS Inc. (Champaign, Ill., USA) PC1 or Hitachi F-4500 spectrofluorometers. […] Low temperature experiments were performed using a thermostated cell holder and flushing the cell compartment with N2 to avoid condensation. All results shown represent equilibrium light scattering values obtained for each sample.
Concentrated peptide stock solutions were prepared in 50% (v/v) trifluoroethanol. Aggregation was triggered by dilution in phosphate-buffered saline (PBS) and was followed by means of light-scattering measurements (FIGS. 1A, 1B, 1C), thioflavin T fluorescence (not shown) and electron microscopy (FIG. 2). Equilibrium light scattering values were used as an index of the extent of aggregation under different experimental conditions.
One class of compounds we tested were the nitrophenols. The disaggregation of Aβ1-42 by nitrophenols was determined. 3-nitrophenol (NP; O) or 2,4-dinitrophenol (DNP; □) were added to aggregated samples prepared as described above. Light scattering intensities were measured 1.5 hour after addition of the drugs. Symbols represent averages±S.D. from 3 experiments.
Further results for a series of aromatic compounds are shown in Table 1, at aromatic compound concentrations of 200 micromolar.

hippocampal neurons [2] = experiment: Cell viability of hippocampal neuron cultures by trypan blue exclusion; settings: no Aβ
Method: Hippocampi from 18-day-old rat embryos were dissected and cultured as previously described by Martins et al., Nat. Med., 3, 1376-82, 1997) with minor modifications. Cells were plated on glass coverslips previously coated with 1.5 μg/ml polyornithine (Sigma) in Basal Eagle's Medium (Gibco) enriched with 10% fetal calf serum (Hyclone) for the first 24 hours of culture. After that, proliferation of nonneuronal cells was inhibited with 10 μM arabinosyl cytoside and the serum concentration was lowered to 2%. Aβ1-42 (44 μM), in the absence or in the presence of nitrophenols, was added after 48 hours of culture and kept for three days. Control cultures consisting of neurons cultured in growth medium alone or in the presence of residual TFE (0.5% v/v) were also prepared. Daily observations were carried out during this period.
Cell viability in cultures incubated with or without Aβ (as described above) was assessed by trypan blue exclusion. Immediately before counting, the medium was removed, cultures were washed once with PBS and incubated for 5 min with 0.4% trypan blue. Randomly chosen fields were counted in a Zeiss Televal microscope. Percentages of live neurons are expressed relative to the total number of neurons observed in each field. Five independent fields were counted for each experimental condition (which were carried out in triplicate).

Aβ1-42 [3] = biological target: T1, Aβ1-42; experiment: Transmission electron microscopy of Aβ1-42 fibril formation; type: biochemical
Method: Aggregated samples were also examined by transmission electron microscopy. In this case, Aβ (22 μM) was incubated in PBS in the absence or in the presence of nitrophenols, as indicated. After 48 hours, samples were stained with 1% uranyl acetate.
Confirmation that the light scattering intensity measurements were in fact related to the formation of amyloid fibrilar aggregates was made by transmission electron microscopy analysis using uranyl acetate staining.
An Aβ1-42 sample incubated for 2 days in the presence of 20 μM DNP is shown in FIG. 2C (Magnification: 52,500×).

amyloid deposits = biological target: T2, amyloid deposits (Homo sapiens, UniProt P05067); experiment: Rat model of cerebral Aβ deposition (intrahippocampal co-injection); type: in vivo; settings: 3 nmol Aβ1-42 co-injected with DNP 0.76 mM into hippocampus; 8 days; n=4, p=0.05
T2 construct: purchased Bachem Inc; host or cells: synthetic peptide
Method: To evaluate the effects of nitrophenols as inhibitors of amyloid deposition in vivo, we used a rat model of cerebral Aβ deposition. Aβ was injected alone or in the presence of DNP into the left or right hippocampi of rats, respectively, and the areas occupied by amyloid deposits in either side were measured on consecutive sections stained with thioflavin S. The experimental protocol used was designed to minimize the influence of individual variability in animal response by injecting Aβ into one hemisphere and Aβ plus DNP into the other hemisphere for each individual rat.
Male adult Wistar rats (280-320 g) were anesthetized with chloropent (3.3 ml/kg) and placed into a stereotaxic frame. The left hippocampus (standard coordinates: A 5.0; L 2.0; H 6.8) was injected with 3 nmol of Aβ1-42 (from a previously diluted stock in 55 μl of PBS containing 9% DMSO). A volume of 1.5 μl was administered at a constant flow rate during a time period of 15 minutes. […] Images were analyzed with ScionImage to measure the areas occupied by amyloid aggregates.
FIG. 5A is a schematic diagram of the injection protocol and representative hippocampal sections visualized by Thioflavine-S staining or autofluorescence, as indicated. FIGS. 5B-5E show quantitative analysis of the area of amyloid deposits in consecutive hippocampal sections as described above. […]

hippocampal neurons [4] = experiment: Aβ neurotoxicity in hippocampal neuron cultures, morphology by anti-Tau immunostaining; type: cell-based, rat; settings: Aβ1-42 44 μM, 72 hours
Method: In order to evaluate the efficacy of the phenol derivatives, control assays were also performed in the absence of the aromatic or heteroaromatic compounds described herein.
Med., 3, 1376-82, 1997) with minor modifications. […] Daily observations were carried out during this period.
Aβ1-42 (44 μM) was added to the culture medium containing neurons and incubation was continued for 72 hours. […] Furthermore, the remaining cell bodies of Aβ-treated neurons were attached to the plate, but their neurites were retracted and thin, and sometimes detached from the plate.

Aβ1-28 = biological target: T3, Aβ1-28 (Homo sapiens, UniProt P05067); experiment: Disaggregation of fibrillar Aβ1-28 by GdnHCl, light scattering; type: biochemical; settings: Aβ1-28 10 μM, 1 hour incubation
T3 construct: purchased Bachem Inc; host or cells: synthetic peptide
Method: as §1
(§2) Stabilities of the fibrillar amyloid aggregates of peptides Aβ1-28, Aβ1-42 and Aβ1-43 in the presence of guanidine hydrochloride were compared. Measurements of the reduction in light scattering intensity as a function of the concentration of guanidine hydrochloride were used as an index of amyloid aggregate dissolution. Samples were incubated for 1 hour in the presence of the indicated concentrations of GdnHCl prior to measurements. Different symbols correspond to Aβ1-28 (□), Aβ1-42 (O) and Aβ1-43 (Δ), and represent averages±S.D. from 3-5 determinations.

Aβ1-42 [5] = biological target: T1, Aβ1-42; experiment: Disaggregation of fibrillar Aβ1-42 by GdnHCl, light scattering; type: biochemical; settings: Aβ1-42 10 μM, 1 hour incubation
Method: as §1, §2

[6] = aromatic compound concentration 200 micromolar

T1 sequence (P05067 672-713): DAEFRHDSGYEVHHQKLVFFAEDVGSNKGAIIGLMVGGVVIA
T2 sequence (P05067 672-713): as above
T3 sequence (P05067 672-699): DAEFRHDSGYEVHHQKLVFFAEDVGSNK

SMILES: O=[N+]([O-])c1ccc(O)c([N+](=O)[O-])c1 [2,4-dinitrophenol]
light scattering from Aβ suspensions (disaggregation of fibrillar amyloid) (Aβ1-42 [1]; DNP 20 μM): completely abolished light scattering
IC50 (Aβ1-42 [1]): ~7 µM
inhibition at 200 µM (Aβ1-42 [1]; [6]): 100%
effect of compound alone on survival of neurons in culture (hippocampal neurons [2]; 20 μM DNP): no effects
fibrils seen by electron microscopy (Aβ1-42 [3]; Aβ1-42 22 μM incubated 2 days in PBS with 20 μM DNP): completely devoid of fibrils
reduction in the volume of amyloid deposits relative to Aβ injected alone (amyloid deposits): 86±17%
protection against Aβ neurotoxicity (neuron morphology) (hippocampal neurons [4]; 20 μM DNP): marked protection against neurotoxicity

SMILES: Nc1cc(Cl)ccc1O [2-amino-4-chlorophenol]
inhibition at 200 µM (Aβ1-42 [1]; [6]): 12%

inhibition at 200 µM (Aβ1-42 [1]; [6]): 92%
SMILES: Nc1cc([N+](=O)[O-])ccc1O [2-amino-4-nitrophenol]

inhibition at 200 µM (Aβ1-42 [1]; [6]): 44%
SMILES: Nc1ccc([N+](=O)[O-])cc1O [2-amino-5-nitrophenol]

SMILES: Cc1ccc(O)cc1C [3,4-dimethyl-phenol]
inhibition at 200 µM (Aβ1-42 [1]; [6]): 40%

SMILES: Nc1cccc(O)c1 [3-amino-phenol]
inhibition at 200 µM (Aβ1-42 [1]; [6]): 18%

SMILES: O=[N+]([O-])c1cccc(O)c1 [3-nitrophenol]
IC50 (Aβ1-42 [1]): ~80 µM
inhibition at 200 µM (Aβ1-42 [1]; [6]): 60%
effect of compound alone on survival of neurons in culture (hippocampal neurons [2]; 100 μM NP): no effects
fibrils seen by electron microscopy (Aβ1-42 [3]; Aβ1-42 22 μM incubated 2 days in PBS with 100 μM NP): completely devoid of fibrils
protection against Aβ neurotoxicity (neuron morphology) (hippocampal neurons [4]; 100 μM NP): marked protection against neurotoxicity

SMILES: COc1ccc(N)cc1 [4-amino-anisole]
inhibition at 200 µM (Aβ1-42 [1]; [6]): 48%

SMILES: O=[N+]([O-])c1ccc(Br)cc1 [4-bromo-nitrobenzene]
% decrease in light scattering (Aβ1-42 [1]; [6]): 37%

SMILES: Oc1ccc(Br)cc1 [4-bromo-phenol]
inhibition at 200 µM (Aβ1-42 [1]; [6]): 25%

SMILES: Oc1ccc(Cl)cc1 [4-chloro-phenol]
inhibition at 200 µM (Aβ1-42 [1]; [6]): 20%

inhibition at 200 µM (Aβ1-42 [1]; [6]): 0%
SMILES: CCc1ccc(O)cc1 [4-ethyl-phenol]

SMILES: COc1ccc([N+](=O)[O-])cc1 [4-nitro-anisole]
inhibition at 200 µM (Aβ1-42 [1]; [6]): 49%

GdnHCl concentration for complete disaggregation (Aβ1-28): 3 M
GdnHCl concentration for full disaggregation (Aβ1-42 [5]): 5 to 6 M
SMILES: N=C(N)N [GdnHCl, guanidine hydrochloride]
